Measured values published in patent EP0338756B1, “Use of 1,2,4-trioxanes as antiparasitics and anthelmintics” (OXACO S.A., priority 1988, dated 1989).

Legend:
Onchocerca gutturosa [1] = experiment: Tetrazolium colorimetric test (formazan formation), using parasites, medium, cells and test drug; details: 5x10⁻⁵ M printed for the test Compounds
Protocol: A suitable colorimetric assay uses formation of formazan, a blue dye, from tetrazolium cation generated by 3-[…] bromide (J Helminth (1987) 60, 271). Firstly, Compounds 1, 2, 3, 4, 5, 7, 8, 9, 11 and 12, along with artemisinin and arteether were tested using parasites, medium, cells and test drug.

Onchocerca gutturosa [2] = experiment: Onchocerca gutturosa motility, using parasites, medium, serum, cells and test drugs; details: with serum and cells
Protocol: (§1) Testing in vitro against Onchocerca gutturosa is a valid model for activity against Onchocerca volvulus. Testing of test drugs (Compounds 1, 2, 3, 4, 5, 7, 8, 9, 11, and 12 of Table 1) against the parasitic worms Onchocerca gutturosa was carried out in accordance with the method described in J Helminth (1987) 60, 271, firstly using parasites, medium, serum, cells and test drugs.

Onchocerca gutturosa [3] = experiment: Onchocerca gutturosa motility, using parasites, medium and drug; details: medium and drug only, time not given
Protocol: as §1, with “drugs. Secondly, test drugs (Compounds 2, 3, 4, 7, 8, 9 and 12 of Table 1) were tested using parasites, medium and drug. […] However, between 4 and 7 days, all the tested Compounds had completely immobilized the worms. Under these conditions, commercial anti-helminthic drugs and artemisinin also cut motility by some 30-40%.” for “drugs.”

**Q.** What does the source list for CC1(C)OO[C@]2(c3ccccc3)CCC(c3ccccc3)=C[C@@H]2O1 (relative stereo) [Compound 12]?
**A.** inhibition of formazan formation (Onchocerca gutturosa [1]): more than 90%; reduced motility (Onchocerca gutturosa [2]; after 7 days): 100%; effect on motility (Onchocerca gutturosa [2]; two to three days exposure): markedly inhibitory

**Q.** Which reduced motility (Onchocerca gutturosa [2]; after a day) does the source give for CCO[C@H]1O[C@@H]2O[C@@]3(C)CC[C@H]4[C@H](C)CC[C@@H]([C@H]1C)[C@@]24OO3 [arteether] here?
**A.** Its reduced motility is 30%.

**Q.** C[C@@H]1CC[C@H]2[C@@H](C)C(=O)O[C@@H]3O[C@@]4(C)CC[C@@H]1[C@]32OO4 [artemisinin, Artemisinin] was tested. Which cut motility (Onchocerca gutturosa [3]) did it give?
**A.** The cut motility was 30-40%.

**Q.** And the effect on motility (Onchocerca gutturosa [2]; a day's exposure)?
**A.** Its effect on motility is “ineffective”.
